Consider 70 molecules from ChEMBL document CHEMBL3988442, “University of Dundee, Small-Polar-MMV Screening Library” (2021).

The test system of the assay is Plasmodium falciparum. Nature of the assay: Calibr Malaria Delayed Death Assay SOP. The class given is functional, organism-based. Particulars: for IC50: Plasmodium falciparum.

A word on the pIC50: it is −log10 of the IC50, conventionally taken in molar units. A low value points to a high IC50. By IC50 is commonly meant the concentration that gives 50% inhibition. Read a high IC50 as weaker potency. The molecule `CC(NCCc1nccn1Cc1ccccc1)c1ccsc1` (stereo not given) showed a negative logarithm of the IC50 (pIC50) of 6.094 and an IC50 of 1000 nM.
For `O=C(NCCN1CCCC1)C1(c2ccc(Cl)cc2)CCOCC1`, in that order: 6.003 and 714 nM.
For `Cc1cc(CN2CCC(CNS(=O)(=O)c3ccc(Br)s3)CC2)c(C)o1`, in that order: 6.178 and 639 nM.
For `Fc1ccc2c(C3=CCN(Cc4nnc(C5CCC5)o4)CC3)c[nH]c2c1`, in that order: 5.905 and 1700 nM.
The molecule `Cc1cccc(CN2CCC(Cc3ccccc3F)CC2)n1` showed a pIC50 of 6.094 and a concentration for half-maximal inhibition (IC50) of 776 nM.
The molecule `Cn1cc(CN2CCCC(CCc3ccccc3C(F)(F)F)C2)cn1` (stereo not given) gave a pIC50 of 6.083 and a half-inhibitory concentration (IC50) of 726 nM.
`OCc1csc(N2CCCC(COc3cccc(F)c3)C2)n1` (stereo not given) showed a pIC50 of 6.326 and an IC50 of 363 nM.
Turning to `O=C([C@@H]1Cc2[nH]cnc2CN1Cc1cc2ccccc2o1)N1CCCC1`, the negative logarithm of the IC50 (pIC50) stood at 5.967 and the IC50 was 1090 nM.
The corresponding values for `Fc1cccc(CN2C[C@@H]3CN(Cc4ccccn4)C[C@@H]3C2)c1.O=C(O)C(F)(F)F.O=C(O)C(F)(F)F` are 6.169 and 531 nM.
As to `COCCOc1ccccc1CNCC1COC2(CCCC2)O1` (stereo not given), the pIC50 was 6.238 and half-maximal inhibition (IC50) was put at 727 nM.
For `Cc1cnn(CCNCc2nccn2Cc2ccccc2)c1`, in that order: 6.212 and 395 nM.
For `CCC(NCc1cccc(Cl)c1)c1ccccc1OCC(=O)NC` (stereo not given), in that order: 6.073 and 1370 nM.
Consider `Cc1ccc(CN(c2cc(C)nc3nc(C(F)(F)F)nn23)C2CC2)cc1`, for which the negative logarithm of the IC50 (pIC50) was found to be 6.41 and the IC50 was 282 nM.
The corresponding values for `Cc1cc(S(=O)(=O)NCC2CNCCOC2)c(C)cc1Cl` (stereo not given) are 5.962 and 990 nM.
For `COCC(O)CN(C)c1ccnc2cc(Br)ccc12` (stereo not given), in that order: 6.091 and 834 nM.
In the case of `CCc1ncc2c(n1)CN(CC(=O)Nc1ccc(Cl)cn1)CC2`, the pIC50 was 5.772 and the IC50 is 1240 nM.
Molecule `Cc1ccc(CN2CCCC3(CCN(Cc4ccoc4)CC3)C2)cc1.O=C(O)C(F)(F)F.O=C(O)C(F)(F)F` had a pIC50 of 6.068 and a concentration for half-maximal inhibition (IC50) of 1110 nM.
For the molecule `CC(C)(C)n1cc(C2=CCN(CCN3CCCCCC3)CC2)cn1`, the negative logarithm of the IC50 (pIC50) is recorded as 5.987 and half-maximal inhibition (IC50) was put at 994 nM.
The molecule `Cc1cccc(Nc2cccc(C3CCCN(Cc4ncc[nH]4)C3)n2)n1` (stereo not given) showed a negative logarithm of the IC50 (pIC50) of 6.378 and a concentration for half-maximal inhibition (IC50) of 465 nM.
The corresponding values for `CC(O)CN1CCC(CNCc2cccc(Br)c2)CC1` (stereo not given) are 6.286 and 528 nM.
`COc1cc(CNCC(O)c2cccc(F)c2)cc2c1OCO2.Cl` (stereo not given) showed a pIC50 of 6.133 and an IC50 of 729 nM.
In turn, `O=C(O)C(F)(F)F.c1ccc(NC[C@@H]2CCC[C@@H]3CN(Cc4cccnc4)C[C@@H]32)nc1` showed a pIC50 of 5.946 and an IC50 of 1220 nM.
The molecule `CN(Cc1cc(F)cc2cccnc12)CC1CCN(CCO)CC1` had a negative logarithm of the IC50 (pIC50) of 6.165 and a half-inhibitory concentration (IC50) of 835 nM.
The corresponding values for `CC(C)=CCN1CCC2(CC1)c1ccccc1[C@@H](N1CCSCC1)[C@@H]2O` are 5.994 and 991 nM.
The corresponding values for `NC(=O)CN1CCC(Nc2ccnc3ccc(Cl)cc23)CC1` are 6.054 and 761 nM.
For the molecule `Cc1noc(C)c1CNCc1ccccc1N(C)C1CCN(C)CC1`, the pIC50 was found to be 6.243 and half-maximal inhibition (IC50) required 489 nM.
Turning to `CC1(C)CC(N(Cc2cccnc2)Cc2cccc(F)c2)CC(C)(C)N1.O=C(O)CC(O)(CC(=O)O)C(=O)O`, the pIC50 is 6.708 and the IC50 is 291 nM.
For `O=C(c1scc2c1OCCO2)N1CCOC(CCc2ccccc2)C1` (stereo not given), in that order: 6.32 and 386 nM.
The corresponding values for `O=S(=O)(NCC(c1ccsc1)N1CCCCCC1)c1cccs1` (stereo not given) are 6.118 and 904 nM.
Consider `CN1[C@H](Cn2cccn2)C[C@@H]2CN(Cc3cccs3)CC[C@@H]21.O=C(O)C(F)(F)F.O=C(O)C(F)(F)F.O=C(O)C(F)(F)F`, for which the pIC50 stood at 6.221 and half-maximal inhibition (IC50) required 593 nM.
For `CN[C@@H](C)C(=O)N(Cc1cccc(C)c1)Cc1ccccc1OC`, in that order: 6.428 and 316 nM.
For `O=C(NCC1CCN(CCc2ccccc2)C1)c1cc(Cl)c[nH]1` (stereo not given), in that order: 5.911 and 1260 nM.
For `Nc1nc2c(c(N3CCCC(c4nnc5ccccn45)C3)n1)CCNC2` (stereo not given), in that order: 6.831 and 144 nM.
For `CN(C)c1ccccc1CN1CCCCC1CNS(C)(=O)=O` (stereo not given), the negative logarithm of the IC50 (pIC50) was determined as 6.043 and the half-maximal inhibitory concentration (IC50) is 1080 nM.
For the molecule `COc1cc(CNCC(O)c2ccc(F)c(F)c2)cc2c1OCO2` (stereo not given), the negative logarithm of the IC50 (pIC50) was determined as 6.45 and inhibition was half-maximal at 460 nM (IC50).
As for `CC(C)C(=O)N1CCCC2(CCCN2CC2CCCC2)C1.O=C(O)C(F)(F)F` (stereo not given), the pIC50 was 5.828 and the 50% inhibitory concentration (IC50) was 1150 nM.
The corresponding values for `CC(=O)N(c1ccc(F)cc1)c1nc(CN2CCCC2C(C)C)cs1` (stereo not given) are 6.177 and 479 nM.
Consider `CN(Cc1ccccc1-n1cccn1)C[C@@H]1CCCN2CCCC[C@H]12`, for which the negative logarithm of the IC50 (pIC50) was determined as 6.129 and it took 852 nM to reach half-maximal inhibition (IC50).
For `Cl.Fc1ccccc1Cn1c(C2CCNCC2)cc2cccnc21`, in that order: 6.466 and 293 nM.
Consider `Cc1ccc(CN(Cc2ccccn2)C2CC(C)(C)NC(C)(C)C2)s1.O=C(O)CC(O)(CC(=O)O)C(=O)O`, for which the negative logarithm of the IC50 (pIC50) is listed as 6.418 and the IC50 is 432 nM.
In turn, `CC(C)(NCc1cccc(O)c1)c1ccc2c(c1)OCO2` showed a pIC50 of 5.935 and an IC50 of 894 nM.
Molecule `Cc1cc(C[C@@H]2CCC[C@H]2NCc2c[nH]nc2-c2ccccc2)on1.O=C(O)CC(O)(CC(=O)O)C(=O)O` had a pIC50 of 5.845 and an IC50 of 1230 nM.
`COc1cccc(-n2ccc3nc(N4CCCC4)ncc3c2=O)c1`: the negative-log IC50 (pIC50) was determined as 5.801 and 1470 nM corresponded to half-maximal inhibition (IC50).
For `CN(C)CCN(Cc1cccnc1)C(=O)c1ccn(-c2ccccc2)n1`, in that order: 5.955 and 876 nM.
For `Cc1ccc(C2(CN(C)Cc3sccc3C)CCNCC2)nc1`, in that order: 6.117 and 515 nM.
Molecule `CC(C)CNC(=O)C1(Cc2ccccc2-c2cccs2)CCNC1` (stereo not given) showed a pIC50 of 6.092 and a half-inhibitory concentration (IC50) of 626 nM.
The corresponding values for `CCC1CN(C(=O)c2ccc(Cl)cc2O)CCN1C(C)C` (stereo not given) are 5.81 and 1130 nM.
For the molecule `CN1CC[C@H](N(Cc2ccccc2)Cc2ccccc2)C[C@H](O)C1`, the negative-log IC50 (pIC50) amounted to 6.066 and the IC50 was 897 nM.
`Cc1cc(C)cc(CN2C[C@H]3COC[C@H](N4CCN(C)CC4)[C@H]3C2)c1.O=C(O)C(F)(F)F.O=C(O)C(F)(F)F.O=C(O)C(F)(F)F`: the pIC50 turned out to be 6.958 and it took 197 nM to reach half-maximal inhibition (IC50).
Molecule `O=C(O)C(F)(F)F.c1ccc(N2CCCC3(CCN(Cc4ccsc4)C3)C2)nc1` (stereo not given) gave a negative logarithm of the IC50 (pIC50) of 6.157 and a 50% inhibitory concentration (IC50) of 842 nM.
Consider `CNS(=O)(=O)c1cccc(C(C)NCc2ccccc2OC)c1` (stereo not given), for which the pIC50 came to 6.041 and the midpoint of inhibition, the IC50, lay at 1090 nM.
The corresponding values for `Cc1cc(F)ccc1-c1ccccc1CC1CNCCNC1=O.Cl` (stereo not given) are 6.113 and 1190 nM.
Molecule `CC(C)CN1CCCC1c1ccc(C(=O)Nc2cccnc2)s1` (stereo not given) gave a pIC50 of 6.101 and an IC50 of 537 nM.
In turn, `O=S(=O)(NC[C@H]1C[C@@H]2CCN1C[C@@H]2CN1CCCC1)c1ccc(Cl)cc1` showed a negative-log IC50 (pIC50) of 5.945 and an IC50 of 1130 nM.
In the case of `CN(Cc1ccco1)C[C@H]1OC[C@@H]2CCN(Cc3ccsc3)C[C@@H]21.O=C(O)C(F)(F)F.O=C(O)C(F)(F)F`, the negative logarithm of the IC50 (pIC50) is listed as 6.029 and the 50% inhibitory concentration (IC50) is 1290 nM.
`CN(Cc1ccoc1)C(=O)C1(Oc2ccc(Cl)cc2)CCNCC1`: the pIC50 was 6.021 and the IC50 is 977 nM.
Molecule `Cc1nn(C)cc1C1=NS(=O)(=O)N(C)C(C(=O)Nc2ccc(Cl)cc2)=C1` gave a negative logarithm of the IC50 (pIC50) of 6.442 and an IC50 of 247 nM.
In turn, `CN1CCCC1CNC(=O)CCCOc1cccc(Br)c1` (stereo not given) gave a negative-log IC50 (pIC50) of 5.833 and a half-maximal inhibitory concentration (IC50) of 1170 nM.
As for `Cc1cccnc1CN1CC[C@H](Oc2cccc(F)c2)[C@@](C)(O)C1`, the pIC50 was 6.112 and half-maximal inhibition (IC50) required 710 nM.
The corresponding values for `CN1CCC(C2CCN(Cc3cccc(-n4cccn4)c3)CC2)C1` (stereo not given) are 6.139 and 656 nM.
The corresponding values for `COc1cccc(CN2CCCC(Nc3cccc(F)c3)C2)c1O` (stereo not given) are 6.314 and 810 nM.
With `CC(C)(C)C(=O)N1C[C@H](c2ccsc2)[C@H]2CN(C3CCCCC3)CC[C@H]21.Cl`, the negative logarithm of the IC50 (pIC50) was found to be 6.133 and the IC50 is 683 nM.
For `CC(C)c1nn(C)c(Cl)c1CNCC(O)c1cccc(F)c1.Cl` (stereo not given), in that order: 6.252 and 392 nM.
Regarding `COc1cccc(CNCc2ccc(F)c(Cl)c2)c1O`, the pIC50 is 6.294 and the IC50 was 500 nM.
For `CC1CN(Cc2ccccc2Cn2cccn2)CCN1C` (stereo not given), in that order: 6.079 and 1080 nM.
On to `Cn1cc(CN2CCCC(CCc3ccc(F)cc3)C2)cn1` (stereo not given), for which the pIC50 is 5.962 and inhibition was half-maximal at 1060 nM (IC50).
Regarding `Cc1ncc(CN(C)C2CCCN(CCc3ccccc3)C2)n1C` (stereo not given), the negative logarithm of the IC50 (pIC50) is 6.013 and the half-inhibitory concentration (IC50) was 783 nM.
In turn, `NC(=O)c1cccc2nc([C@H]3CCN(Cc4ccccn4)C3)[nH]c12` had a pIC50 of 7.592 and an IC50 of 27.5 nM.
For `COc1ccc(NC(=O)Nc2cnc(N3CCN(C)CC3)nc2)cc1Cl`, in that order: 6.139 and 843 nM.
On to `O=C(NC1CCN(CC2CC2)C1)N1CCC(OC2CCCCC2)CC1` (stereo not given), for which the pIC50 is listed as 6.591 and the half-inhibitory concentration (IC50) is 332 nM.
